Measurements from patent US10047115B2, “Cyclic dinucleotides useful for the treatment of inter alia cancer” (priority 2015, dated 2018).

Tested on: Female Balb/C mice
Test: Adjuvant activity in mice, HBsAg model, serum ELISA antibody titers
Conditions: for HBsAg-specific serum IgG: HBsAg administered IM with adjuvant; for Anti-HBsAg titers compared with the nonadjuvanted benchmark: mice vaccinated IM
Procedure: This objective of this study was to evaluate the potential of STING agonists of the present invention to function as adjuvants in mice using the HBsAg model.
Female Balb/C Mice were Vaccinated IM
Vaccines were delivered intramuscularly two times at 21 day intervals, and sera were evaluated for systemic antibody responses. Spleens (3 mice/group) were collected for Luminex/ICS analysis.
Sera were harvested 14dp1 and 14dp2 vaccination. Serum was evaluated by ELISA for anti-HBsAg IgG, IgG1, and IgG2a titers.

SMILES	HBsAg-specific serum IgG	Anti-HBsAg titers compared with the nonadjuvanted benchmark	HBsAg-specific IgG levels, dose response (four doses, IM)	antibody titers compared with cGAMP (relative to dose)
Nc1nc2c(ncn2[C@@H]2O[C@@H]3COP(=O)(O)O[C@H]4[C@@H](O)[C@H](n5cnc6c(N)ncnc65)O[C@@H]4COP(=O)(O)O[C@@H]2[C@@H]3O)c(=O)[nH]1 [cGAMP, reference compound]	high levels	significantly higher		
Nc1nc2c(ncn2[C@@H]2O[C@@H]3COP(=O)(O)O[C@H]4[C@@H](F)[C@H](n5cnc6c(N)ncnc65)O[C@@H]4COP(=O)(O)O[C@@H]2[C@@H]3O)c(=O)[nH]1 [Example 1, (1R,6R,8R,9R,10R,15R,17R,18R)-17-(2-Amino-6-oxo-6,9-dihydro-1H-purin-9-yl)-8-(6-amino-9H-purin-9-yl)-9-fluoro-3,12,18-trihydroxy-2,4,7,11,13,16-hexaoxa-3λ^5,12λ^5-diphosphatricyclo[13.2.1.0^6,10]octadecane-3,12-dione]	high levels	significantly higher	dose responsive	no significant differences
